Publication PMC8645336, “Benchmarking a highly selective USP30 inhibitor for enhancement of mitophagy and pexophagy” (Life Science Alliance, 2021)

Experiments:
USP28 = target: T1, USP28 (Homo sapiens, UniProt Q96RU2); assay: biochemical; design: Ubiquigent DUB profiler selectivity panel, remaining enzyme activity as % of control; settings: read-out: % of control remaining
T1 sequence (Q96RU2 1-1077): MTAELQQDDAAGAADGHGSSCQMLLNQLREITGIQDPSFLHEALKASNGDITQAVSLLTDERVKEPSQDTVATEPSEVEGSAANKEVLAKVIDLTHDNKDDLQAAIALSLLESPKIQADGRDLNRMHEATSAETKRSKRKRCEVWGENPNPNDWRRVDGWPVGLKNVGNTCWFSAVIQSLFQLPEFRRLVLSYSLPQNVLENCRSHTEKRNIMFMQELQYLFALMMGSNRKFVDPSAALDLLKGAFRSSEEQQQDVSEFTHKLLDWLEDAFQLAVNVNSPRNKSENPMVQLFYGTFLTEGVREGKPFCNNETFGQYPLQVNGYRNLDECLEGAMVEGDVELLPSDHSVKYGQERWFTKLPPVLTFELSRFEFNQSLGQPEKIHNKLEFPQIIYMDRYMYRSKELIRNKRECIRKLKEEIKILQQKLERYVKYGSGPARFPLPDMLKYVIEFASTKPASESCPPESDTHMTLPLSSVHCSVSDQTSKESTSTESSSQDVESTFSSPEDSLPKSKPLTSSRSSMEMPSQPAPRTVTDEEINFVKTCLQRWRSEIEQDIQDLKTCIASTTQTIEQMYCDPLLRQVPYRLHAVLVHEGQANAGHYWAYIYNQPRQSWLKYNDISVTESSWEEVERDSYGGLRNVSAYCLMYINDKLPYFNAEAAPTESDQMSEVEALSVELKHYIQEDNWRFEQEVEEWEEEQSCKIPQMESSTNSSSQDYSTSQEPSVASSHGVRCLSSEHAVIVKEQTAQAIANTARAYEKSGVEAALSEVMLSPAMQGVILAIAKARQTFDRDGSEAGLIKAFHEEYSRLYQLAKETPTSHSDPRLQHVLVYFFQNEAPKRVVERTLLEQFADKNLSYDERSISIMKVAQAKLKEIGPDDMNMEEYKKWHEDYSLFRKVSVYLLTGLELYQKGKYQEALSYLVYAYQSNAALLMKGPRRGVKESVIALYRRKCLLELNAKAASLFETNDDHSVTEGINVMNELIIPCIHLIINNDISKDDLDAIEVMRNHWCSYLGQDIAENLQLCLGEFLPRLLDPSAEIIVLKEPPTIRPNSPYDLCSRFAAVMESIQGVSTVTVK
Summary of the method: (§1)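 CMPD-39 selectivity was profiled at 1-100 μM across >40 DUBs. Cellular engagement used 2 h CMPD-39 pretreatment, then HA-Ub-PA probe for 10 min at 37°C, with USP30 band shift on immunoblot. TOMM20 ubiquitylation was blotted in YFP-PRKN hTERT-RPE1 cells after 1 h antimycin A/oligomycin A (1 μM each).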

Cezanne = target: T2, Cezanne (Homo sapiens, UniProt Q6GQQ9); assay: biochemical; design: Ubiquigent DUB profiler selectivity panel, remaining enzyme activity as % of control; settings: read-out: % of control remaining
T2 construct: gene OTUD7B
T2 sequence (Q6GQQ9 1-843): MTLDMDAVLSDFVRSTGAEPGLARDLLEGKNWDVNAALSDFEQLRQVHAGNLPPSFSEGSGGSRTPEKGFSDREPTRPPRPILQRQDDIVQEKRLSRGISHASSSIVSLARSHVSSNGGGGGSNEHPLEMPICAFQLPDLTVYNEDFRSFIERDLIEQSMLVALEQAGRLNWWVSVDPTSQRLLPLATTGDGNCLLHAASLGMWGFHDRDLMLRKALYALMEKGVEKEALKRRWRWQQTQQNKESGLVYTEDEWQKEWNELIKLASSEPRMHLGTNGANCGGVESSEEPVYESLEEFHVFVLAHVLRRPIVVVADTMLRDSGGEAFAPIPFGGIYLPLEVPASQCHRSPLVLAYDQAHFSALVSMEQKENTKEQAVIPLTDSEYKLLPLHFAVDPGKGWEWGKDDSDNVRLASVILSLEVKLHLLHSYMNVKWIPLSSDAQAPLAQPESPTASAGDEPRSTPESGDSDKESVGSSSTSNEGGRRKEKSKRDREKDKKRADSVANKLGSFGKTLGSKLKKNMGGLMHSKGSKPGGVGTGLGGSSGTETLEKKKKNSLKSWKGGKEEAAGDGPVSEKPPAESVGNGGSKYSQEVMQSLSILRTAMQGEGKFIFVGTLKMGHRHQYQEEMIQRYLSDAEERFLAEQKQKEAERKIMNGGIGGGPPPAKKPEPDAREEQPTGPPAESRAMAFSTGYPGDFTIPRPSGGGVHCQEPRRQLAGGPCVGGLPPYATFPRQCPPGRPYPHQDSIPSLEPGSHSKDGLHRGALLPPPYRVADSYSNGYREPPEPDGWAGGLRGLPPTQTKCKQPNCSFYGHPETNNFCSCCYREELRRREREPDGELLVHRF
Summary of the method: as §1

remaining activity at 1 µM (USP28): 96.5% | remaining activity at 10 µM (USP28): 94.2% | remaining activity at 100 µM (USP28): 102% | remaining activity at 1 µM (Cezanne): 98.7% | remaining activity at 10 µM (Cezanne): 98.8% | remaining activity at 100 µM (Cezanne): 94.4%
SMILES: CC(C)(C)NS(=O)(=O)c1ccc(NC(=O)[C@H](Cc2ccccc2)NC(=O)c2ccc(F)cc2)cc1 [compound 39, CMPD-39]
